In patent US20060183676A1, “Treatment of mycobacterium tuberculosis with antisense oligonucleotides” (priority 2001, published 2006):
Values after ≈ are worked out from the molar mass of the structure shown. Read-outs that look alike come from different tables or passages of the source. In the oligonucleotide strings, read from the 5' end, every base follows the letter of its sugar. An asterisk marks phosphorothioate; unmarked linkages are phosphodiester. Other units and linkages are bracketed, terminal groups are in braces. A string of capitals states the bases alone. Bridge positions count the residues as written; N and C are the ends. Square brackets hold non-standard residues; d marks the D form. Peptide text beside a SMILES is read from it. {FL} = fluorescein label; Dab = NCC[C@H](N)C(=O)O; d = 2'-deoxy (DNA); m = 2'-O-methyl

Tests used:
[1] = test system: M. tuberculosis; format: cell-based; details: log reduction in CFU vs untreated control or MM-PS-ODN cultures; 10 μM, added once at start
[2] = test system: M. tuberculosis Erdman strain; format: cell-based; details: 6 weeks, O.D.; for inhibition of M. tuberculosis in the presence of antibiotic (in words): 10 μM plus ethambutol 5 μg/ml; for M. tuberculosis growth in the absence of antibiotic (in words): 10 μM
[3] = test system: M. tuberculosis Erdman
[4] = test system: M. smegmatis 1-2c
[5] = test system: M. tuberculosis Erdman; test: microbe, parasite or virus in culture; details: Mycobacterium tuberculosis
[6] = test system: M. smegmatis 1-2c; test: microbe, parasite or virus in culture; details: Mycolicibacterium smegmatis, 12C
[7] = test system: M. tuberculosis Erdman strain; format: cell-based
[8] = test system: poly-L-glutamate/glutamine in the cell wall of M. tuberculosis; details: 20 μM; Harth et al. 1999; cited from earlier work
[9] = test system: M. tuberculosis Erdman; details: Harth et al. 1999, cited from earlier work
[10] = test system: M. tuberculosis Erdman glutamine synthetase; details: 20 μM; Harth et al. 1999; cited from earlier work
[11] = test system: M. tuberculosis Erdman; format: cell-based

Compound: 5′>TTCACCACTGATGCTTCCCGTCAT (dT*dT*dC*dA*dC*dC*dA*dC*dT*dG*dA*dT*dG*dC*dT*dT*dC*dC*dC*dG*dT*dC*dA*dT; antisense) [ppsA]
- log Reduction [1]: 0 log

Compound: 5′-TGCCGCAGCCACGGCGACGGCCGTGGT (SEQ ID NO: 11) [Val 33]
- inhibition of M. tuberculosis in the presence of antibiotic (in words) [2]: enhanced the inhibition
- M. tuberculosis growth in the absence of antibiotic (in words) [2]: inhibited

Compound: 5′-CGCTTCATCCTGCCGTGTCGG (SEQ ID NO: 8) [Val 24]
- inhibition of M. tuberculosis in the presence of antibiotic (in words) [2]: enhanced the inhibition
- M. tuberculosis growth in the absence of antibiotic (in words) [2]: did not inhibit

Compound: 5′-TGGCCATGTCTTCACCGCTTCATCCTG (SEQ ID NO: 9) [Val 25]
- M. tuberculosis growth in the absence of antibiotic (in words) [2]: did not inhibit

Compound: 5′-TGCCGCAGCCACGGCGACGGCCGTGGTGTCCGAACC (SEQ ID NO: 12) [Val 34]
- inhibition of M. tuberculosis in the presence of antibiotic (in words) [2]: enhanced the inhibition
- M. tuberculosis growth in the absence of antibiotic (in words) [2]: inhibited

Compound: 5′>GCACGGTCTTGGCCTGGGTGAGTC (dG*dC*dA*dC*dG*dG*dT*dC*dT*dT*dG*dG*dC*dC*dT*dG*dG*dG*dT*dG*dA*dG*dT*dC; antisense) [glnA3]
- log Reduction [1]: 0 log

Compound: 5′>CGCCGCGCGCTCCGCCAGACTTGTCAT (dC*dG*dC*dC*dG*dC*dG*dC*dG*dC*dT*dC*dC*dG*dC*dC*dA*dG*dA*dC*dT*dT*dG*dT*dC*dA*dT; antisense) [ppsD]
- log Reduction [1]: 0 log

Compound: 5′>TTTGCCGTCCAGCAGTCCTGTCAT (chemistry not given here) [lnhA]
- log Reduction [1]: 0.05 log

Compound: 5′>TC(c->g)GCGATCTGGTGTCGCTGCGGTCAT (phosphorothioate, 5' TC(c->g) prefix, further chemistry not given here) [ppsC]
- log Reduction [1]: 0 log

Compound: 5′-TGGGGCTGGCCATGTCTTCAC-3′ (SEQ ID NO: 7) [Val 23]
- inhibition of M. tuberculosis in the presence of antibiotic (in words) [2]: enhanced the inhibition
- M. tuberculosis growth in the absence of antibiotic (in words) [2]: inhibited

Compound: 5′>GCCATTAGCGGTGGAAGGCTGACTCAC (dG*dC*dC*dA*dT*dT*dA*dG*dC*dG*dG*dT*dG*dG*dA*dA*dG*dG*dC*dT*dG*dA*dC*dT*dC*dA*dC; antisense) [kasA]
- log Reduction [1]: 0 log

Compound: CC(C)C[C@@H]1NC(=O)[C@@H](Cc2ccccc2)NC(=O)[C@H](CCN)NC(=O)[C@@H](NC(=O)[C@H](CCN)NC(=O)[C@@H](N)[C@@H](C)O)CCNC(=O)[C@H]([C@@H](C)O)NC(=O)[C@H](CCN)NC(=O)[C@H](CCN)NC1=O [polymyxin B nonapeptide] (H-T[Dab][Dab][Dab][dF]L[Dab][Dab]T; lactam 3-C; N-terminus assumed)
- MIC [3]: ~5 µg/mL (≈ 5.19 µM)
- MIC [4]: ~5 µg/mL (≈ 5.19 µM)

Compound: 5′>2′OMeATTCTT-TCGGCTCACGTC-2′OMeTGTCAT [fbpB (SEQ ID NO: 25)]
- log Reduction [1]: 0.4 log

Compound: 5′>AACGAATTCCTTCTGTCGGTCCAT (dA*dA*dC*dG*dA*dA*dT*dT*dC*dC*dT*dT*dC*dT*dG*dT*dC*dG*dG*dT*dC*dC*dA*dT; antisense) [glnA2]
- log Reduction [1]: 0.05-0.1 log

Compound: 5′>CGCGATCGCGTTCTCGGGGATGCTCAC (dC*dG*dC*dG*dA*dT*dC*dG*dC*dG*dT*dT*dC*dT*dC*dG*dG*dG*dG*dA*dT*dG*dC*dT*dC*dA*dC; antisense) [ppsE]
- log Reduction [1]: 0 log

Compound: CC[C@@H](CO)NCCN[C@@H](CC)CO [ethambutol]
- MIC [5]: ~5 µg/mL (≈ 24.5 µM)
- MIC [6]: ~10 µg/mL (≈ 48.9 µM)

Compound: 5-GAACGCCGGGGTGTTGATGTCCCAGCCG (SEQ ID NO: 14) [ML10]
- inhibition of M. tuberculosis growth in the presence of ethambutol, added only once ([7]; 10 μM plus ethambutol 5 μg/ml, 9 weeks): slightly enhanced the inhibition
- M. tuberculosis growth relative to control, added only once at the start ([7]; 10 μM, no antibiotic, 9 weeks, O.D.): slightly inhibited
- M. tuberculosis growth relative to control, added weekly for 9 weeks ([7]; 10 μM, no antibiotic, O.D.): inhibited

Compound: 5′>AATGATTTCTTCCTGAGTGACAGGCAC (dA*dA*dT*dG*dA*dT*dT*dT*dC*dT*dT*dC*dC*dT*dG*dA*dG*dT*dG*dA*dC*dA*dG*dG*dC*dA*dC; antisense) [acpM]
- log Reduction [1]: 0 log

Compound: 5′-CACCTTCGCCACGATTGGAGCCCTCCA (SEQ ID NO: 13) (phosphorothioate, further chemistry not given here; listed as Mycobacterium tuberculosis) [Val 41, PS-ODN against nucleotides −15 to 12 of the groES gene]
- inhibition of M. tuberculosis in the presence of antibiotic (in words) [2]: enhanced the inhibition
- M. tuberculosis growth in the absence of antibiotic (in words) [2]: did not inhibit

Compound: 5′>FL-GCCGGGGTGTTGATATCCCAGCCG (5' {FL}, sugars by position and backbone not given here) [fbpB (SEQ ID NO: 24), antisense PS-ODN against fbpB (30 kDa protein gene) with fluorescein attached to the 5′ end]
- log Reduction [1]: 0.6 log

Compound: 5′>GGACACCTCGAGACCGTACTGCAC (dG*dG*dA*dC*dA*dC*dC*dT*dC*dG*dA*dG*dA*dC*dC*dG*dT*dA*dC*dT*dG*dC*dA*dC) [rfe]
- log Reduction [1]: 0.25 log

Compound: 5′>GCTCTGAAACGTGCCGGTCTGAAC (dG*dC*dT*dC*dT*dG*dA*dA*dA*dC*dG*dT*dG*dC*dC*dG*dG*dT*dC*dT*dG*dA*dA*dC; antisense) [fadD26]
- log Reduction [1]: 0.65 log

Compound: 5′>2′OMeACGAAC-CCTGTCAACAAG-2′OMeCTGCAT (antisense ACGAACCCTGTCAACAAGCTGCAT; sugars from the 5' end m6 d12 m6, all phosphorothioate, T or U not given here) [fbpA (SEQ ID NO: 26), antisense PS-ODN against fbpA with O-methyl groups at the 5′ and 3′ ends]
- log Reduction [1]: 0.4 log

Compound: CS(=N)(=O)CC[C@H](N)C(=O)O (stereo partly drawn) [L-methionine-S-sulfoximine]
- reduction of the amount of the poly-L-glutamate/glutamine cell wall structure [8]: 93%
- inhibition of bacterial growth ([9]; 2 μM): 1.5-2 log units
- reduction of bacterial growth ([9]; 20 μM): ≥ 2.5 log units
- reduction of extracellular glutamine synthetase activity [10]: 80%

Compound: 5′>GACATTCTCCCAGAACCGTTTCAC (chemistry not given here) [air, antisense PS-ODN against the alr gene (alanine racemase) transcript]
- log Reduction [1]: 0.2 log

Compound: NCC[C@H](O)C(=O)N[C@@H]1C[C@H](N)[C@@H](O[C@H]2O[C@H](CN)[C@@H](O)[C@H](O)[C@H]2O)[C@H](O)[C@H]1O[C@H]1O[C@H](CO)[C@@H](O)[C@H](N)[C@H]1O [amikacin, reference compound]
- antibacterial effect of free antibiotic (in words) ([11]; 1 μM): bacteriostatic
- antibacterial effect of free antibiotic (in words) ([11]; 5.8 μg per ml (10 μM)): strongly bactericidal

Compound: 5′>AATCCGGCTGAAAGCCGTTCGCATCAC (dA*dA*dT*dC*dC*dG*dG*dC*dT*dG*dA*dA*dA*dG*dC*dC*dG*dT*dT*dC*dG*dC*dA*dT*dC*dA*dC; antisense) [ppsB]
- log Reduction [1]: 0 log

Compound: 5′>ACGAACCCTGTCAACAAGCTGCAT-GGGGG (antisense dA*dC*dG*dA*dA*dC*dC*dC*dT*dG*dT*dC*dA*dA*dC*dA*dA*dG*dC*dT*dG*dC*dA*dT*dG*dG*dG*dG*dG) [fbpA (SEQ ID NO: 27), antisense PS-ODN against fbpA with five Gs attached to the 3′ end]
- log Reduction [1]: 0.8 log

Compound: 5′>CAAGATGGACACCGTCACCGCTAC (dC*dA*dA*dG*dA*dT*dG*dG*dA*dC*dA*dC*dC*dG*dT*dC*dA*dC*dC*dG*dC*dT*dA*dC; antisense) [murX]
- log Reduction [1]: 0 log

Compound: 5′>AACGGGAGTGACACGTGATTCCAT (dA*dA*dC*dG*dG*dG*dA*dG*dT*dG*dA*dC*dA*dC*dG*dT*dG*dA*dT*dT*dC*dC*dA*dT) [mas]
- log Reduction [1]: 0.35 log

Compound: 5′>CGGCCCTGCATGTCGGTGAACGCG (dC*dG*dG*dC*dC*dC*dT*dG*dC*dA*dT*dG*dT*dC*dG*dG*dT*dG*dA*dA*dC*dG*dC*dG; antisense) [glnA4]
- log Reduction [1]: 0 log

Compound: 5′>CACATCCAGCGACTTGGCCAGCTC (dC*dA*dC*dA*dT*dC*dC*dA*dG*dC*dG*dA*dC*dT*dT*dG*dG*dC*dC*dA*dG*dC*dT*dC; antisense) [rfbE]
- log Reduction [1]: 0 log

Compound: 5′-CCATGTCTTCACCGCTTCATCCTG (SEQ ID NO: 10) [Val 26]
- inhibition of M. tuberculosis in the presence of antibiotic (in words) [2]: enhanced the inhibition
- M. tuberculosis growth in the absence of antibiotic (in words) [2]: did not inhibit
